Reference: US8017162B2, “Anti-inflammatory agent” (Oryza Oil & Fat Chemical Co., Ltd., priority 2005, dated 2011)
Where “and” joins values, the source holds several entries; their conditions need not be identical. Identical values can stand only once. Entries after “also recorded” stand apart in the source; their conditions may differ.

Experiments:
[1] = test system: RAW264.7 cells; experiment: NO production inhibition test (LPS, Griess Method); format: cell-based, mouse
Protocol: A 200 microliter each of the continuously-cultivated RAW264.7 cells (10^6 cells/mL) should be seeded into 48-well plate. After 24 hours, replace the culture medium with a serum-free culture medium. Then, add the LPS (final concentration: 10 microgram/mL) and samples (Examples 1 & 2), and then cultivate for 24 hours. Collect the supernatant (100 microliter) and determine the amount of NO by the Griess Method.

[2] = test system: adjuvant arthritis; experiment: Preventive effect on adjuvant arthritis: edema volume of the tarsus (footpad volume); format: in vivo, rats
From the text: Firstly, subcutaneously administer the adjuvant to the right tarsus of the rats under the following condition so that the arthritis is caused in the mice. On the second day that the arthritis is induced, orally administer the red ginger extract to the rats for four consecutive weeks by the following method, and regularly observe the tarsus edema of the rats and the anti-inflammatory effect of the test substance. Weigh at once the two-day doses of the red ginger extract as the test substance described in Example 1, and use the red ginger extract suspended with the 0.5% CMC-Na. At this time, prepare the high-dose test substance (10 mg/5 mL/kg). Then, […] the liquid to prepare the low-dose test substance (1 mg/5 mL/kg). Weigh the necessary amount of Indomethacin (Lot No. 122K0718, Sigma-Aldrich, Inc.) which is commercially available. Then prepare freshly the positive control substance with the injection solvent until it becomes 0.5 mg/5 mL/kg. Then, dispose of it after all the administrations have been completed. 2. Firstly, obtain 28 mice (7-week-old, SD (CrjBgi:CD) IGS mice, male SPF) from ORIENT CO., LTD. Then, quarantine and naturalize the mice for more than 7 days. After observing the mice during the period of naturalization and quarantine, use the mice that are alive and which have no problems in the weight and general status. When the mice were grouped, the weight ranged from 279.3 to 328.7 g. When the inflammation was induced, the weight ranged from 283.7 to 333.9 g. When the autopsy was conducted, the weight ranged from 293.4 g to 440.8 g. 3. Administration The test substance was forcibly administered to the mice through a stomach sonde or syringe once a day for a period of 28 days after the inflammation was induced. As shown in the chart below, there are 4 groups, and each group has seven examples (i.e. 7 mice). The test substance was orally administered to each mouse for 28 days from the day after the inflammation was induced. During the period when the test substance was administered, the edema of the right tarsus of each mouse was X-rayed twice a week. From the day after the test was completed, the right and left tarsuses of each mouse were X-rayed twice a week, and the effect of the test substance on the bone was verified. The solution (1.0 mg/0.1 mL) was made from 1 mL of FREUND'S INCOMPLETE ADJUTANT (FIA) and 10 mg of killed bacteria (fungus body)—MYCOBACTERIUM BUTYRICUM (Lot Ni. 5129117, Difco). The FIA and the killed bacteria were sufficiently suspended, and then approx. […] of the solution was administered to the subcutaneous of the footpads of the right, hind leg of each mouse. To verify the degree and the increase of the edema volume before and after the adjuvant was induced, the footpad volume of the right hind leg was measured by using Digital Pletysmometer, LE7500 (Panlab SL, Spain) twice each time immediately before the adjuvant was induced, and again on Days 3, 6, 10, 13, 17, 20, 24 and 27 after the adjuvant was induced. Each measured value was determined by Dunnet's Test using the Graphad Instat Program (Ver. 4.5, USA), and the significant difference test was conducted.

[3] = test system: adjuvant arthritis; experiment: Adjuvant arthritis: X-ray determination of tarsus and interphalangeal articulation (radiographic index); format: in vivo, rats; details: 0.5 mg/kg
From the text: Firstly, subcutaneously administer the adjuvant to the right tarsus of the rats under the following condition so that the arthritis is caused in the mice. On the second day that the arthritis is induced, orally administer the red ginger extract to the rats for four consecutive weeks by the following method, and regularly observe the tarsus edema of the rats and the anti-inflammatory effect of the test substance. 2. Firstly, obtain 28 mice (7-week-old, SD (CrjBgi:CD) IGS mice, male SPF) from ORIENT CO., LTD. Then, quarantine and naturalize the mice for more than 7 days. After observing the mice during the period of naturalization and quarantine, use the mice that are alive and which have no problems in the weight and general status. When the mice were grouped, the weight ranged from 279.3 to 328.7 g. When the inflammation was induced, the weight ranged from 283.7 to 333.9 g. When the autopsy was conducted, the weight ranged from 293.4 g to 440.8 g. 3. Administration The test substance was forcibly administered to the mice through a stomach sonde or syringe once a day for a period of 28 days after the inflammation was induced. As shown in the chart below, there are 4 groups, and each group has seven examples (i.e. 7 mice). The test substance was orally administered to each mouse for 28 days from the day after the inflammation was induced. During the period when the test substance was administered, the edema of the right tarsus of each mouse was X-rayed twice a week. From the day after the test was completed, the right and left tarsuses of each mouse were X-rayed twice a week, and the effect of the test substance on the bone was verified. The solution (1.0 mg/0.1 mL) was made from 1 mL of FREUND'S INCOMPLETE ADJUTANT (FIA) and 10 mg of killed bacteria (fungus body)—MYCOBACTERIUM BUTYRICUM (Lot Ni. 5129117, Difco). The FIA and the killed bacteria were sufficiently suspended, and then approx. […] of the solution was administered to the subcutaneous of the footpads of the right, hind leg of each mouse. On the 27th day after the administration was begun, the edema was taken out. The hind leg was affixed with the neutral buffered formalin fixative (10%), and the image of the tarsus articulation area, including the interphalangeal articulation, was taken by a soft X-ray. The tarsus articulation and the interphalangeal articulation were verified by the degrees between −(normal status) and 5+(most serious status). A radiographic index was obtained by the method as shown in Chart 2, below. Add up the figures to determine the severity of the articular destruction. [table]

[4] = 1 μg/mL, LPS 10 microgram/mL, 24 hours, average ± SD
[5] = right leg, individual animals, listed as Indomet hacin
[6] = right leg, individual animals, listed as indomethacin

CCC[C@H](O)CC(=O)CCc1ccc(O)c(OC)c1 [Example 4-gingerol, 4-gingerol]
NO in supernatant [1, 4]: 4.98 ± 0.22 µM | NO in supernatant ([1]; 3 μg/mL): 5.10 ± 0.24 µM | NO in supernatant ([1]; 10 μg/mL): 4.98 ± 0.22 µM | NO in supernatant ([1]; 30 μg/mL): 5.03 ± 0.45 µM | NO in supernatant ([1]; 100 μg/mL): 4.98 ± 0.26 µM

CCCCC/C=C/C(=O)CCc1ccc(O)c(OC)c1 [Example 6-shogaol, 6-shogaol]
NO in supernatant [1, 4]: 3.81 ± 0.29 µM | NO in supernatant ([1]; 3 μg/mL): 3.60 ± 0.29 µM | Inhibition ratio (NO production) ([1]; 10 μg/mL): (13.6) % | NO in supernatant ([1]; 10 μg/mL): 3.21 ± 0.31 µM | Inhibition ratio (NO production) ([1]; 30 μg/mL): (29.8) % | NO in supernatant ([1]; 30 μg/mL): 2.79 ± 0.09 µM | Inhibition ratio (NO production) ([1]; 100 μg/mL): (90.7) % | NO in supernatant ([1]; 100 μg/mL): 1.22 ± 0.04 µM | Effect on NO production among the ingredients ([1]; compared with the other components): comparatively strong effect

CCCCCCC[C@H](O)CC(=O)CCc1ccc(O)c(OC)c1 [Example 8-gingerol, 8-gingerol]
Inhibition ratio (NO production) ([1]; 1 μg/mL): (4.7) % | NO in supernatant [1, 4]: 4.17 ± 0.27 µM | Inhibition ratio (NO production) ([1]; 3 μg/mL): (7.7) % | NO in supernatant ([1]; 3 μg/mL): 4.06 ± 0.24 µM | Inhibition ratio (NO production) ([1]; 10 μg/mL): (13.3) % | NO in supernatant ([1]; 10 μg/mL): 3.86 ± 0.32 µM | Inhibition ratio (NO production) ([1]; 30 μg/mL): (20.7) % | NO in supernatant ([1]; 30 μg/mL): 3.59 ± 0.21 µM | Inhibition ratio (NO production) ([1]; 100 μg/mL): (31.5) % | NO in supernatant ([1]; 100 μg/mL): 3.20 ± 0.17 µM

CCCCCCCCC[C@H](O)CC(=O)CCc1ccc(O)c(OC)c1 [Example 10-gingerol, 10-gingerol]
NO in supernatant [1, 4]: 4.44 ± 0.27 µM | NO in supernatant ([1]; 3 μg/mL): 4.32 ± 0.16 µM | NO in supernatant ([1]; 10 μg/mL): 4.33 ± 0.50 µM | NO in supernatant ([1]; 30 μg/mL): 4.28 ± 0.72 µM | Inhibition ratio (NO production) ([1]; 100 μg/mL): (21.1) % | NO in supernatant ([1]; 100 μg/mL): 3.55 ± 0.08 µM

CCCCCCCCC/C=C/C(=O)CCc1ccc(O)c(OC)c1 [Example 10-shogaol, 10-shogaol]
Inhibition ratio (NO production) ([1]; 1 μg/mL): (23.4) % | NO in supernatant [1, 4]: 2.78 ± 0.10 µM | Inhibition ratio (NO production) ([1]; 3 μg/mL): (18.5) % | NO in supernatant ([1]; 3 μg/mL): 2.88 ± 0.11 µM | Inhibition ratio (NO production) ([1]; 10 μg/mL): (24.4) % | NO in supernatant ([1]; 10 μg/mL): 2.76 ± 0.10 µM | Inhibition ratio (NO production) ([1]; 30 μg/mL): (28.3) % | NO in supernatant ([1]; 30 μg/mL): 2.68 ± 0.70 µM | Inhibition ratio (NO production) ([1]; 100 μg/mL): (31.2) % | NO in supernatant ([1]; 100 μg/mL): 2.62 ± 0.71 µM

COc1ccc2c(c1)c(CC(=O)O)c(C)n2C(=O)c1ccc(Cl)cc1 [Indomethacin]
Edema volume of the tarsus, right tarsus ([2]; 0.5 mg/kg oral once a day, Day 0 (before induction)): 1.81 ± 0.07 mL | Edema volume of the tarsus, right tarsus ([2]; 0.5 mg/kg, Day 3): 3.35 ± 0.18 mL | Edema volume of the tarsus, right tarsus ([2]; 0.5 mg/kg, Day 3, listed as indomethacin): 3.35 mL | Edema volume of the tarsus, right tarsus ([2]; 0.5 mg/kg, Day 6): 3.69 ± 0.40 mL | Edema volume of the tarsus, right tarsus ([2]; 0.5 mg/kg, Day 10): 3.69 ± 0.36 mL | Edema volume of the tarsus, right tarsus ([2]; 0.5 mg/kg, Day 13): 3.40 ± 0.43 mL | Edema volume of the tarsus, right tarsus ([2]; 0.5 mg/kg, Day 17): 3.11 ± 0.59 mL | Edema volume of the tarsus, right tarsus ([2]; 0.5 mg/kg, Day 20): 3.18 ± 0.52 mL | Edema volume of the tarsus, right tarsus ([2]; 0.5 mg/kg, Day 24): 3.19 ± 0.51 mL | Edema volume of the tarsus, right tarsus ([2]; 0.5 mg/kg, Day 24, listed as indomethacin): 3.19 mL | Edema volume of the tarsus, right tarsus ([2]; 0.5 mg/kg, Day 27): 2.89 ± 0.34 mL | Degree of disorder compared to the vehicle group [3]: remarkably suppressed | Result (X-ray determination) ([3]; right leg, individual animals): 2+ (Moderate(−): 2+; 2points) | Interphal angeal articulation: Bone destruction [3, 5]: − (Normal: −; 0 point); also recorded: + (Mild: +; 1 point) | Interphal angeal articulation: Periostitis [3, 5]: + (Mild: +; 1 point); also recorded: − (Normal: −; 0 point) | Interphal angeal articulation: Total [3, 5]: 1 points (5×) and 0 points and 2 points | Tarsus articulation: Bone destruction [3, 5]: − (Normal: −; 0 point); also recorded: + (Mild: +; 1 point) | Tarsus articulation: Periostitis [3, 5]: 2+ (Moderate(−): 2+; 2points) (6×) and 3+ (Moderate(+): 3+; 3 ponts) | Tarsus articulation: Total [3, 5]: 2 points (2×) and 3 points (4×) and 4 points | Interphal angeal articulation: Bone destruction [3, 6]: + (Mild: +; 1 point) | Interphal angeal articulation: Periostitis [3, 6]: + (Mild: +; 1 point) | Tarsus articulation: Bone destruction [3, 6]: + (Mild: +; 1 point)
